Source: patent publication US20240226049A1, “METHODS OF TREATMENT USING BEMPEDOIC ACID” (Esperion Therapeutics, Inc., priority 2023, published 2024)

Tested on: primary prevention patients unable to tolerate recommended doses of statins
Test: CLEAR OUTCOMES primary prevention subgroup (Example 2): investigator-reported adverse events and safety laboratory findings
Type: in vivo
Description: The rationale, design and methods of the CLEAR Outcomes trial is described in Example 1. The trial was conducted at 1250 sites in 32 countries and designed by the Cleveland Clinic Coordinating Center for Clinical Research (C5Research) and an academic Executive Committee in collaboration with the sponsor. The protocol was approved by ethics committees at participating sites and all patients provided written informed consent before enrollment. A contract research organization collected the data which were transferred to C5Research at completion of the trial whose statisticians conducted the analyses described herein. An independent Data Monitoring Committee monitored the trial.
Primary prevention patients 18 to 85 years of age with an LDL cholesterol ≥100 mg/dL with clinical features placing them at high risk for a first cardiovascular event were eligible. Criteria for high cardiovascular risk included risk scores, such as the Reynolds Risk Score and the SCORE project (Ridker et al., Development and validation of improved algorithms for the assessment of global cardiovascular risk in women: the Reynolds Risk Score, JAMA. 2007 Feb. 14; 297(6):611-9; Ridker et al., C-reactive protein and parental history improve global cardiovascular risk prediction. The Reynolds Risk Score for men, Circulation. 2008; 118: 2243-2251; European Guidelines on CVD Prevention in Clinical Practice. 2016. Eur J Prev Cardiol. 2016 July; 23(11):NP1-NP96), a coronary artery calcium score >400 Agatston units (AU) or presence of either type 1 or 2 diabetes in women aged >65 years or men older than 60 years.
Investigators were responsible for assessing the patient for statin intolerance. Patients had to report statin intolerance due to an adverse effect that started or increased during statin therapy and resolved or improved after statin therapy was discontinued. Entry criteria required inability to tolerate 2 or more statins at any dose or 1 statin and unwillingness to attempt a second statin or advised by a physician not to attempt taking a second statin. Both the patient and site investigator were required to provide written confirmation that the patient was statin intolerant and aware of the benefits of statins to reduce the risk of cardiovascular events, including death, and acknowledge that many patients who are unable to tolerate a statin can tolerate a different statin or dose. Patients could be enrolled if they tolerated a very low average daily statin dose defined as rosuvastatin <5 mg, atorvastatin <10 mg, simvastatin <10 mg, lovastatin <20 mg, pravastatin <40 mg, fluvastatin <40 mg, or pitavastatin <2 mg. Other background lipid-lowering therapies were permitted, including ezetimibe, niacin, bile acid resins, fibrates, and/or proprotein convertase subtilisin kexin type 9 (PCSK9) inhibitors.
Eligible patients entered a 4-week run-in period during which patients were treated with single-blind placebo. If patients were intolerant to placebo treatment or if adherence was <80% by tablet count, they were not eligible for randomization. Patients who successfully completed the run-in period were randomly assigned in a 1:1 ratio to receive a 180 mg oral dose of bempedoic acid or matching placebo, administered daily. During the trial, LDL cholesterol and hsCRP results were masked. Beginning 6 months after randomization, the central laboratory notified the investigator, who remained blinded to treatment assignment, if the patient's LDL cholesterol level was ≥25% higher than baseline. Repeat testing was performed after the patient was counseled about diet and encouraged to take all medications as prescribed. The patient returned for a repeat fasting blood lipid profile to confirm whether the LDL cholesterol value exceeded the threshold criteria. If confirmed, the patient's treatment regimen for LDL cholesterol lowering could be adjusted, per standard of care and local practice. […]

[1] = primary prevention safety population
[2] = primary prevention safety population, N = 2104
[3] = primary prevention, after 6 months
[4] = primary prevention, after 12 months

Question: For `CC(C)(CCCCCC(O)CCCCCC(C)(C)C(=O)O)C(=O)O` [Bempedoic Acid, Bempedoic acid], which “New onset diabetes in patients with pre-diabetes at baseline, %” value [1] is on record?
Answer: (8.4) %

Question: What about the “New onset diabetes in patients without diabetes at baseline, %” value [1] of the same compound?
Answer: (6.4) %

Question: What about the “Adjudicated tendon rupture, %” value [2] of the same compound?
Answer: 1.4%

Question: What about the “Adverse event leading to drug discontinuation, %” value [2] of the same compound?
Answer: 9.9%

Question: What about the “Any treatment emergent adverse event, %” value [2] of the same compound?
Answer: 84.8%

Question: What about the “Atrial fibrillation, %” value [2] of the same compound?
Answer: 2.5%

Question: And the “Cholelithiasis, %” value [2]?
Answer: 2.5%

Question: What about the “Discontinuation of treatment due to myalgia, %” value [2] of the same compound?
Answer: 1.4%

Question: What about the “Elevated hepatic enzymes, %” value [2] of the same compound?
Answer: 4.5%

Question: And the “Gout, %” value [2]?
Answer: 2.6%

Question: What about the “Hyperuricemia, %” value [2] of the same compound?
Answer: 12.1%

Question: And the “Hypoglycemia, %” value [2]?
Answer: 4.9%

Question: And the “Malignancies, %” value [2]?
Answer: 4.0%

Question: What about the “Muscular disorders, %” value [2] of the same compound?
Answer: 12.8%

Question: What about the “Myalgias, %” value [2] of the same compound?
Answer: 4.2%

Question: And the “Neurocognitive disorders, %” value [2]?
Answer: 0.4%

Question: What about the “Renal impairment, %” value [2] of the same compound?
Answer: 10.3%

Question: What about the “Serious treatment emergent adverse event, %” value [2] of the same compound?
Answer: 19.9%

Question: And the “Tendinopathies, %” value [2]?
Answer: 1.8%

Question: And the “Change from baseline in creatinine levels, mean (SD)” value [3]?
Answer: 0.05 (0.19) mg/dL

Question: What about the “Change from baseline in uric acid level, mean (SD)” value [3] of the same compound?
Answer: 0.80 (1.1)^ mg/dL

Question: And the “Patients with creatinine >1.5 mg/dL, %” value [3]?
Answer: (3.3%)

Question: And the “Patients with uric acid level >8.5 mg/dL, %” value [3]?
Answer: (10.8%)

Question: What about the “Change from baseline in glycated hemoglobin level (%), patients with diabetes at baseline” value [4] of the same compound?
Answer: 0.03(0.96) %

Question: And the “Change from baseline in glycated hemoglobin level (%), patients without diabetes at baseline” value [4]?
Answer: 0.02(0.26) %

Question: And the “Change from baseline in glycated hemoglobin level (%)” value (primary prevention, after 12 months, not a prespecified safety measure)?
Answer: 0.03 (0.79) %

Question: What about the “Aspartate aminotransferase level >3 times ULN, %” value (primary prevention, at any visit) of the same compound?
Answer: 3.5%

Question: And the “Creatine kinase levels >10x ULN (single occurrence), %” value (primary prevention, at any visit, N = 2104)?
Answer: 0.2%

Question: What about the “Alanine aminotransferase level >3 times ULN, %” value (primary prevention, at any visit, repeated and confirmed) of the same compound?
Answer: 2.1%

Question: And the “Worsening hyperglycemia, %” value (primary prevention, in patients with diabetes at baseline)?
Answer: (21.6) %
